Laboratory results from US9211310B2, “Use of a Chinese medicine composition in preparing medicaments for treating secondary prevention of myocardial infarction” (TASLY PHARMACEUTICAL GROUP CO., LTD, priority 2010, dated 2015).

Tested on: patients after acute myocardial infarction
Experiment: Life quality, Seattle Angina Questionnaire (SAQ), same clinical trial
Assay type: in vivo, human
Settings: 6 months after treatment
Text: 3508 patients who were in accordance with the diagnostic standards of AMI for 28 days to 2 years and differentiated as Qi deficiency and blood stagnation syndrome by TCM were studied. 0.5 g Chinese medicine composition prepared by the method of EXAMPLE 1 (Coded as QSYQ) was administrated half an hour after meal, 3 times per day.
There were 19 questions in the Seattle angina questionnaire (SAQ), including 5 parts: physical limitation (PL), anginal stability (AS), anginal frequency (AF), treatment satisfaction (TS) and disease perception (DP). After being given necessary explanation by doctors, the questions were answered independently by patients.
They included the overall survival time, angina pectoris score, TCM symptom score and life quality score, where angina pectoris score, TCM symptom score and life quality score were evaluated at randomization, in 1st, 3rd, 6th, 9th, 12th month after treatment and 18th month after follow-up.
All evaluation results of SAQ were described during the period of observation, and Wilcoxon rank sum test was used for inter-group comparison.
The evaluation results in the SAQ were depicted in different observations, and inter-group comparison was tested by Wilcoxon Rank-sum test.

CC(=O)Oc1ccccc1C(=O)O [Control group, aspirine]
SAQ Question 1-3: Not limited, number of patients (FAS): 1358 | SAQ Question 1-3: Not limited, percent of patients (FAS): (77.87%) | SAQ Question 1-3: Other reasons, number of patients (FAS): 11 | SAQ Question 1-3: Other reasons, percent of patients (FAS): (0.63%) | SAQ Question 1-3: Severely limited, number of patients (FAS): 4 | SAQ Question 1-3: Severely limited, percent of patients (FAS): (0.23%) | SAQ Question 1-3: Slightly limited, number of patients (FAS): 265 | SAQ Question 1-3: Slightly limited, percent of patients (FAS): (15.19%) | SAQ Question 1-4: Mildly limited, number of patients (FAS): 314 | SAQ Question 1-4: Mildly limited, percent of patients (FAS): (18.00%) | SAQ Question 1-4: Moderately limited, number of patients (FAS): 97 | SAQ Question 1-4: Moderately limited, percent of patients (FAS): (5.56%) | SAQ Question 1-4: Not limited, number of patients (FAS): 731 | SAQ Question 1-4: Not limited, percent of patients (FAS): (41.92%) | SAQ Question 1-4: Other reasons, number of patients (FAS): 13 | SAQ Question 1-4: Other reasons, percent of patients (FAS): (0.75%) | SAQ Question 1-4: Severely limited, number of patients (FAS): 29 | SAQ Question 1-4: Severely limited, percent of patients (FAS): (1.66%) | SAQ Question 1-4: Slightly limited, number of patients (FAS): 560 | SAQ Question 1-4: Slightly limited, percent of patients (FAS): (32.11%) | SAQ Question 1-5: Mildly limited, number of patients (FAS): 292 | SAQ Question 1-5: Mildly limited, percent of patients (FAS): (16.75%) | SAQ Question 1-5: Moderately limited, number of patients (FAS): 137 | SAQ Question 1-5: Moderately limited, percent of patients (FAS): (7.86%) | SAQ Question 1-5: Not limited, number of patients (FAS): 755 | SAQ Question 1-5: Not limited, percent of patients (FAS): (43.32%) | SAQ Question 1-5: Other reasons, number of patients (FAS): 13 | SAQ Question 1-5: Other reasons, percent of patients (FAS): (0.75%) | SAQ Question 1-5: Severely limited, number of patients (FAS): 20 | SAQ Question 1-5: Severely limited, percent of patients (FAS): (1.15%) | SAQ Question 1-5: Slightly limited, number of patients (FAS): 526 | SAQ Question 1-5: Slightly limited, percent of patients (FAS): (30.18%) | SAQ Question 1-9: Mildly limited, % of cases (FAS): (19.93%) | SAQ Question 1-9: Mildly limited, cases (FAS): 341 | SAQ Question 1-9: Moderately limited, % of cases (FAS): (20.86%) | SAQ Question 1-9: Moderately limited, cases (FAS): 357 | SAQ Question 1-9: Not limited, % of cases (FAS): (3.39%) | SAQ Question 1-9: Not limited, cases (FAS): 58 | SAQ Question 1-9: Other limited, % of cases (FAS): (6.20%) | SAQ Question 1-9: Other limited, cases (FAS): 106 | SAQ Question 1-9: Severely limited, % of cases (FAS): (35.42%) | SAQ Question 1-9: Severely limited, cases (FAS): 606 | SAQ Question 1-9: Slightly limited, % of cases (FAS): (14.20%) | SAQ Question 1-9: Slightly limited, cases (FAS): 243 | SAQ 2nd question: Clearly increased, % of cases (PP): (0.21%) | SAQ 2nd question: Clearly increased, cases (PP): 3 | SAQ 2nd question: Clearly reduced, % of cases (PP): (24.52%) | SAQ 2nd question: Clearly reduced, cases (PP): 355 | SAQ 2nd question: Same, % of cases (PP): (36.46%) | SAQ 2nd question: Same, cases (PP): 528 | SAQ 2nd question: Slightly increased, % of cases (PP): (2.76%) | SAQ 2nd question: Slightly increased, cases (PP): 40 | SAQ 2nd question: Slightly reduced, % of cases (PP): (36.05%) | SAQ 2nd question: Slightly reduced, cases (PP): 522 | SAQ 3rd question: 1-2 times per week, % of cases (PP): (36.05%) | SAQ 3rd question: 1-2 times per week, cases (PP): 522 | SAQ 3rd question: 1-3 times per day, % of cases (PP): (2.76%) | SAQ 3rd question: 1-3 times per day, cases (PP): 40 | SAQ 3rd question: <1 time per week, % of cases (PP): (24.52%) | SAQ 3rd question: <1 time per week, cases (PP): 355 | SAQ 3rd question: No onset, % of cases (PP): (0.00%) | SAQ 3rd question: No onset, cases (PP): 0 | SAQ 3rd question: ≧3 times per week, % of cases (PP): (36.46%) | SAQ 3rd question: ≧3 times per week, cases (PP): 528 | SAQ 3rd question: ≧4 times per day, % of cases (PP): (0.21%) | SAQ 3rd question: ≧4 times per day, cases (PP): 3 | SAQ Question 1-3: Mildly limited, number of patients (PP): 65 | SAQ Question 1-3: Mildly limited, percent of patients (PP): (4.48%) | SAQ Question 1-3: Moderately limited, number of patients (PP): 14 | SAQ Question 1-3: Moderately limited, percent of patients (PP): (0.97%) | SAQ Question 1-3: Not limited, number of patients (PP): 1131 | SAQ Question 1-3: Not limited, percent of patients (PP): (78.00%) | SAQ Question 1-3: Other reasons, number of patients (PP): 9 | SAQ Question 1-3: Other reasons, percent of patients (PP): (0.62%) | SAQ Question 1-3: Severely limited, number of patients (PP): 4 | SAQ Question 1-3: Severely limited, percent of patients (PP): (0.28%) | SAQ Question 1-3: Slightly limited, number of patients (PP): 227
